Measurements: patent US9809532B2, “Uses of histone acetyltransferase activators” (THE TRUSTEES OF COLUMBIA UNIVERSITY IN THE CITY OF NEW YORK, priority 2011, dated 2017)

Assays:
[1] = target: T1, HDAC6 (Homo sapiens, UniProt Q9UBN7); experiment: HDAC6 activity assay (fluorescence); details: Compound 1 Log [nM] 4.0; Repeat1/Repeat2
T1 sequence (Q9UBN7 1-1215): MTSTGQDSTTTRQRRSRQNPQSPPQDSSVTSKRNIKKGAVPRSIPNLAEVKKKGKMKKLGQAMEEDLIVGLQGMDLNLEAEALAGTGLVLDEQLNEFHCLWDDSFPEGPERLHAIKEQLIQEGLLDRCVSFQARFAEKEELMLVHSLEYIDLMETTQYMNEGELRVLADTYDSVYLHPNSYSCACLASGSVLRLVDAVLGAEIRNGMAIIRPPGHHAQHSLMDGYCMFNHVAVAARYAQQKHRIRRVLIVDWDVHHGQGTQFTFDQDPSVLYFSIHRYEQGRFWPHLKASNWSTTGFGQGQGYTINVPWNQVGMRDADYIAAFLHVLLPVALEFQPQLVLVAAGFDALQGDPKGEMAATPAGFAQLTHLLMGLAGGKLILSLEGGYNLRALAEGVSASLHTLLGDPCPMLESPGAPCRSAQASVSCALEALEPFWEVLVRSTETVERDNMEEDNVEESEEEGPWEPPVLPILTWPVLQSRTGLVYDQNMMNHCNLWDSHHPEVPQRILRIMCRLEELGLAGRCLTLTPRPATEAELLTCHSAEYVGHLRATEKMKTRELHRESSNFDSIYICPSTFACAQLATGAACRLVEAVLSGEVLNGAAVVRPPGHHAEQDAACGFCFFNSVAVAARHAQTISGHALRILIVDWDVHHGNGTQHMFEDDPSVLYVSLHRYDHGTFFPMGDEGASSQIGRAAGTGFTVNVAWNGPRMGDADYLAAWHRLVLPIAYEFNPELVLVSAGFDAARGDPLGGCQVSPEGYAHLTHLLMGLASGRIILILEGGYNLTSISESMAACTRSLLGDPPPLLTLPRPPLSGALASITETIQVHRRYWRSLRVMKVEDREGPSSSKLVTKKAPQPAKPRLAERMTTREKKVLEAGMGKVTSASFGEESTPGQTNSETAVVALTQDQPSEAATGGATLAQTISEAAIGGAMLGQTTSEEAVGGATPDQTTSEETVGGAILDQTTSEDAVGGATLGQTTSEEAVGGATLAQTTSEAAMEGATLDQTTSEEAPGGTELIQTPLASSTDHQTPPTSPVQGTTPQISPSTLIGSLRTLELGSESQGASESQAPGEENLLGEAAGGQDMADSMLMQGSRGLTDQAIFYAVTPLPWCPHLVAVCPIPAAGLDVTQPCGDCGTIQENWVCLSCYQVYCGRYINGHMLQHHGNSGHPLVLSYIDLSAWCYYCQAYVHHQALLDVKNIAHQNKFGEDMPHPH

[2] = system: BDNF; experiment: BDNF levels in hippocampi of Aβ-infused mice; format: in vivo; details: for hippocampal BDNF levels after Aβ infusion: 20 mg/kg, i.p., 90 min before harvesting, Aβ-infused mice
Text: 3(1): p. 12-29; Caccamo, A., et al., CBP gene transfer increases BDNF levels and ameliorates learning and memory deficits in a mouse model of Alzheimer's disease. Proc Natl Acad Sci USA, 2010. 107(52): p. 22687-92; each herein incorporated by reference in its entirety). […] The Journal of Neuroscience: The Official Journal of the Society for Neuroscience, 2007. 27(10): p. 2628-35; each herein incorporated by reference in its entirety). Thus, preliminary studies on Compound 1 efficacy were extended to BDNF. BDNF levels in the hippocampi of Aβ-infused mice were measured compared to vehicle infused animals. Consistent with the decrease in BDNF levels in brains of AD patients and animal models of AD, a reduction of BDNF levels following Aβ infusion was found (FIG. 23).

[3] = target: T2, HDAC10 (Homo sapiens, UniProt Q969S8); experiment: HDAC10 activity assay (fluorescence); details: Compound 1 Log [nM] 4.5; Repeat1/Repeat2
T2 sequence (Q969S8 1-669): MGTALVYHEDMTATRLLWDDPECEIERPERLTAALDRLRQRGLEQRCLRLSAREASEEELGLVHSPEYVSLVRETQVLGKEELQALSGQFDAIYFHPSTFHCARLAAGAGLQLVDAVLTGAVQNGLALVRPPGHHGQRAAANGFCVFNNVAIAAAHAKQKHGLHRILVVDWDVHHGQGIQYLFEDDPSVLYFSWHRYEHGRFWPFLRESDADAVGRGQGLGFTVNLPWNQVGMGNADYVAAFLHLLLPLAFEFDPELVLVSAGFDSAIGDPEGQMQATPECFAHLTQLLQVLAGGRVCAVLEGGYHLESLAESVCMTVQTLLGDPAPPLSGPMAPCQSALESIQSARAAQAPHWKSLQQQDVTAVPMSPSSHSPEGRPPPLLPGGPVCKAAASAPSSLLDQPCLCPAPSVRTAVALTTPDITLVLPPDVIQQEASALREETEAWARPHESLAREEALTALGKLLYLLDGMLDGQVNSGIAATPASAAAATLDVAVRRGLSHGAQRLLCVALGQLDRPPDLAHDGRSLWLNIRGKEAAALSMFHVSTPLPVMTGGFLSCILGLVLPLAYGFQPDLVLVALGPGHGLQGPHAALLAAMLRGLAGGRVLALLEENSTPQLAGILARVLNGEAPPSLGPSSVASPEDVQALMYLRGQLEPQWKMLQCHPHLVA

CCOc1cccc(OCCN(C)C)c1C(=O)Nc1ccc(Cl)c(C(F)(F)F)c1 [Compound 1]
% Activity (HDAC6) [1]: 94.62% | hippocampal BDNF levels after Aβ infusion [2]: rescued | hippocampal BDNF levels after Aβ infusion ([2]; listed as YF2): rescued Aβ-induced decrease in hippocampal BDNF levels | hippocampal BDNF levels ([2]; vehicle-infused mice): increased BDNF levels | % Activity (HDAC10) [3]: 102.89%
